Measurements published in patent publication US9611277B2 (Janssen Pharmaceutica NV, priority 2013, dated 2017).

What was measured:
rat orexin 1 receptor = rat orexin 1 receptor (Rattus norvegicus, UniProt P56718); test: Rat orexin 1 receptor radioligand binding; details: rat orexin 1 receptor; averages of 2-20 runs; read-out: rOX1 Ki
Summary of the method: (§1)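 Competition binding with the tritiated thiazolyl-pyrrolidinyl-methanone radioligand in PBS on homogenized rat or human OX1R-expressing cell suspensions, ≤0.1% DMSO; nonspecific binding defined with 10 μM almorexant. Bound radioactivity read by scintillation after filtration; IC50 from one-site competition fit, converted to Ki using pre-determined radioligand Kd.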

human orexin 1 receptor = human orexin 1 receptor (Homo sapiens, UniProt O43613); test: Human orexin 1 receptor radioligand binding; details: human orexin 1 receptor; averages of 2-20 runs; read-out: hOX1 Ki
Summary of the method: as §1

human orexin 2 receptor = human orexin 2 receptor (Homo sapiens (Human), UniProt O43614); test: Human orexin 2 receptor radioligand binding; details: human orexin 2 receptor; averages of 2-20 runs; read-out: hOX2 Ki
Chain of human orexin 2 receptor (O43614 whole entry): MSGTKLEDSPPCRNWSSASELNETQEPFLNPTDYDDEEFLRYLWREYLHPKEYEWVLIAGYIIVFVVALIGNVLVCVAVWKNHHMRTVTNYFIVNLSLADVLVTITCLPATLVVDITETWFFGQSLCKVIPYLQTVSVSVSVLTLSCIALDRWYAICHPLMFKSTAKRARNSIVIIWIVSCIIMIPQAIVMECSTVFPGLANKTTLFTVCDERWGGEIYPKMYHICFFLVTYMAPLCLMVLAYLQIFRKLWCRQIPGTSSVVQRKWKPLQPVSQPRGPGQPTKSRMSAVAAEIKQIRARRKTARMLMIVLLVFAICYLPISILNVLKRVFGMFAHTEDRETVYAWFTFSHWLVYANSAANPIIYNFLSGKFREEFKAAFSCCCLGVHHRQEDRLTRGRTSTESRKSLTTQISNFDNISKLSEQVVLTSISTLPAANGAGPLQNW
Summary of the method: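 HEK293 cells stably expressing human OX2 receptor, homogenized, incubated with [3H]-EMPA and compounds (DMSO ≤0.1%); nonspecific binding with 10 μM almorexant. Filter-bound radioactivity counted by scintillation; IC50 from one-site competition fit of triplicates, Ki from IC50 and predetermined radioligand Kd, averaged over 2-20 runs.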

| SMILES | Ki (rat orexin 1 receptor) | Ki (human orexin 1 receptor) | Ki (human orexin 2 receptor) |
| --- | --- | --- | --- |
| Cc1cccc(C(=O)N2C[C@H]3C[C@@H](Nc4cnc(C(F)(F)F)cn4)[C@@H]2C3)c1-n1nccn1 [Example 196, (3-methyl-2-(2H-1,2,3-triazol-2-yl)phenyl)((1S,4S,6R)-6-((5-(trifluoromethyl)pyrazin-2-yl)amino)-2-azabicyclo[2.2.1]heptan-2-yl)methanone] | 6 nM | 4 nM | 60 nM |
| COc1ccc(C(=O)N2C[C@H]3C[C@@H](Nc4cnc(C(F)(F)F)cn4)[C@@H]2C3)c(-n2nccn2)c1 [Example 197, (4-methoxy-2-(2H-1,2,3-triazol-2-yl)phenyl)((1S,4S,6R)-6-((5-(trifluoromethyl)pyrazin-2-yl)amino)-2-azabicyclo[2.2.1]heptan-2-yl)methanone] | 93 nM | 39 nM | 9700 nM |
| O=C(c1ccc(F)cc1-c1ncccn1)N1C[C@H]2C[C@@H](Nc3cnc(C(F)(F)F)cn3)[C@@H]1C2 [Example 198, (4-fluoro-2-(pyrimidin-2-yl)phenyl)((1S,4S,6R)-6-((5-(trifluoromethyl)pyrazin-2-yl)amino)-2-azabicyclo[2.2.1]heptan-2-yl)methanone] | 11 nM | 9 nM | 1380 nM |
| O=C(c1cc(F)ccc1-c1ncccn1)N1C[C@H]2C[C@@H](Nc3cnc(C(F)(F)F)cn3)[C@@H]1C2 [Example 199, (5-fluoro-2-(pyrimidin-2-yl)phenyl)((1S,4S,6R)-6-((5-(trifluoromethyl)pyrazin-2-yl)amino)-2-azabicyclo[2.2.1]heptan-2-yl)methanone] | 6 nM | 8 nM | 221 nM |
| O=C(c1c(F)cccc1-c1ncccn1)N1C[C@H]2C[C@@H](Nc3cnc(C(F)(F)F)cn3)[C@@H]1C2 [Example 200, (2-fluoro-6-(pyrimidin-2-yl)phenyl)((1S,4S,6R)-6-((5-(trifluoromethyl)pyrazin-2-yl)amino)-2-azabicyclo[2.2.1]heptan-2-yl)methanone] | 7 nM | 6 nM | 240 nM |
| O=C(c1ccccc1-c1ncccn1)N1C[C@H]2C[C@@H](Nc3cnc(C(F)(F)F)cn3)[C@@H]1C2 [Example 201, (2-(pyrimidin-2-yl)phenyl)((1S,4S,6R)-6-((5-(trifluoromethyl)pyrazin-2-yl)amino)-2-azabicyclo[2.2.1]heptan-2-yl)methanone] | 6 nM | 6 nM | 213 nM |

Next, values leading:

| Ki (rat orexin 1 receptor) | Ki (human orexin 1 receptor) | Ki (human orexin 2 receptor) | SMILES |
| --- | --- | --- | --- |
| 8 nM | 7 nM | 249 nM | O=C(c1cccc(F)c1-n1nccn1)N1C[C@H]2C[C@@H](Nc3cnc(C(F)(F)F)cn3)[C@@H]1C2 [Example 192, (3-fluoro-2-(2H-1,2,3-triazol-2-yl)phenyl)((1S,4S,6R)-6-((5-(trifluoromethyl)pyrazin-2-yl)amino)-2-azabicyclo[2.2.1]heptan-2-yl)methanone] |
| 40 nM | 65 nM | 2000 nM | O=C(c1ccc(F)cc1-n1nccn1)N1C[C@H]2C[C@@H](Nc3cnc(C(F)(F)F)cn3)[C@@H]1C2 [Example 193, (4-fluoro-2-(2H-1,2,3-triazol-2-yl)phenyl)((1S,4S,6R)-6-((5-(trifluoromethyl)pyrazin-2-yl)amino)-2-azabicyclo[2.2.1]heptan-2-yl)methanone] |
| 8 nM | 8 nM | 241 nM | O=C(c1cc(F)ccc1-n1nccn1)N1CC2CC(Nc3cnc(C(F)(F)F)cn3)C1C2 [Example 194, ((5-fluoro-2-(2H-1,2,3-triazol-2-yl)phenyl)((1S,4S,6R)-6-((5-(trifluoromethyl)pyrazin-2-yl)amino)-2-azabicyclo[2.2.1]heptan-2-yl)methanone] |
| 9 nM | 8 nM | 199 nM | O=C(c1c(F)cccc1-n1nccn1)N1C[C@H]2C[C@@H](Nc3cnc(C(F)(F)F)cn3)[C@@H]1C2 [Example 195, (2-fluoro-6-(2H-1,2,3-triazol-2-yl)phenyl)((1S,4S,6R)-6-((5-(trifluoromethyl)pyrazin-2-yl)amino)-2-azabicyclo[2.2.1]heptan-2-yl)methanone] |
